Data on one molecule can be found in patent US5001158A, “Nitrosoureas compounds preparation thereof and utilization thereof in anticancerous” (Centre National de la Recherche Scientifique, priority 1990, dated 1991).

The test system of data set [1] is leukemia L 1210. Kind of data set: Antitumoral activity on leukemia L 1210 grafted i.p. in mice, sulfoxide and sulfone mixtures (Unit 71 of INSERM). The settings on record: D1, D5, D9. The data set is classed as in vivo, mice (B6 D2 F1 /IFFA CREDO). As to the method: This activity was also studied on mice carrying leukemia L 1210 grafted i.p. This experimental tumor is the one most frequently used in the primary screening of cytostatic drugs.
These tests were conducted in parallel in two laboratories: at Unit 71 of the Institut National de la Sante et de la Recberche Mediecale (INSERM), ClermontFerrand, and at the Institut de Cancerologie et d' Immunogenetique (ICIG), Villejuif.
The antitumoral efficacy of the products according to the invention was compared with that of CNCC.
On day D:0, three-month-old male B6 D2 F1 mice received 10^5 cells of the leukemia strain L 1210 by intraperitoneal administration. The animals are divided up into groups of 8 to 10 animals for the control groups and 6 to 8 animals for the treated groups. On days D:1, D:5 and D:9, the animals receive the treatment at different doses by intraperitoneal or intravenous administration. The CNCC is administered as a suspension in olive oil. The products according to the invention are administered in physiological serum. The mortality is recorded every day. The survival median was determined for the treated animals and the control animals. The results are considered to be positive if the index I= [formula] is greater than 125.
The value .infin. means that 50% to 100% of the animals have survived to day D:90.
The cytostatic activity oi the products according to the invention on leukemia L 1210 was evaluated on B6 D2 F1 /IFFA CREDO mice according to the protocol described previously.
The following were administered intraperitoneally (i.p.): the mixture A1 A2 in the following proportions: A1 (70%) and A2 (30%), or the mixture B1 B2 in the same proportions, or CNCC at the following doses: 10 mg/kg, 20 mg/kg, 30 mg/kg, 40 mg/kg and 50 mg/kg. The results are given in Table II and invite the following remarks: […]

The nature of data set [2]: Solubility in solvents allowing intravenous administration. The class given is physicochemical. The conditions noted are these: solvents which allow intravenous administration.
Data set [3] concerns Leukemia L 1210. The conditions noted are these: 30 mg/kg i.p., days 1, 5 and 9; cited from earlier work.
The test system of data set [4] is Lewis pulmonary carcinoma. The settings on record: 30 mg/kg i.p., days 1, 5 and 9; cited from earlier work.
In a further data set the test system is Melanocarcinoma B 16. The settings on record: 30 mg/kg i.p., days 1, 5 and 9; cited from earlier work.
Another data set concerns Glioma 26. The conditions noted are these: 30 mg/kg i.p., days 1, 5 and 9; cited from earlier work.
In data set [5] the test system is Mammary adenocarcinoma TM2. The settings on record: 30 mg/kg i.p., days 1, 5 and 9; cited from earlier work.
For a further data set, the system named is Fibrosarcoma I.C.I.G. C1. The arrangement: key: N.S.: Not significant; .infin.: 50% more of the treated animals are cure. The conditions noted are these: 30 mg/kg i.p., days 1, 5 and 9; cited from earlier work.
Data set [6] has as its system Carcinoma of the colon (colon 26). The conditions noted are these: 30 mg/kg i.p., days 1, 5 and 9; cited from earlier work.
In a further data set the test system is Ovarian M 555. The settings on record: 30 mg/kg i.p., days 1, 5 and 9; cited from earlier work.
Data set [7] concerns types of tumor listed in Table I. The settings on record: cited from earlier work.

For the molecule `O=NN(CCCl)C(=O)NCCSSCCN(N=O)C(=O)NCCCl` [CNCC, N[N-(2-chloroethyl) N-nitrosocarbamoyl]-N'-[N(2-chloroethyl)carbamoyl] N'-nitrosocystamine], the “T/C × 100” value is listed as 250 in the data set on leukemia L 1210 [1] (10 mg/kg i.p.); “.infin. (50 to 100% of the animals surviving to 90 days)” in the data set on leukemia L 1210 [1] (20 mg/kg i.p.); “.infin. (50 to 100% of the animals surviving to 90 days)” with leukemia L 1210 [1] (30 mg/kg i.p.); “.infin. (50 to 100% of the animals surviving to 90 days)” with leukemia L 1210 [1] (40 mg/kg i.p.); 125 in the data set with leukemia L 1210 [1] (50 mg/kg i.p.). Further, the “number of animals surviving to 90 days” value in the data set with leukemia L 1210 [1] (10 mg/kg i.p.) was 0/6; in the data set with leukemia L 1210 [1] (20 mg/kg i.p.), 6/6; in the data set with leukemia L 1210 [1] (30 mg/kg i.p.), 6/6; with leukemia L 1210 [1] (40 mg/kg i.p.) it was 3/6; in the data set with leukemia L 1210 [1] (50 mg/kg i.p.), 0/6. The “solubility (in words)” value in [2] is “insolubility of this compound in the solvents which allow intravenous administration”. The “Increase in the survival time (I.L.S.: T/C × 100)” value in the data set on Leukemia L 1210 [3] was “.infin. (50% more of the treated animals are cure)”; in data set [4], “.infin. (50% more of the treated animals are cure)”; with Melanocarcinoma B 16, 200; in the data set with Glioma 26, 200; in data set [5], 185; in the data set on Fibrosarcoma I.C.I.G. C1, “N.S”. In addition, the figures for the “Increase in the survival time (I.L.S.: T/C × 100)” value (in [6]; in the data set with Ovarian M 555) were “.infin. (50% more of the treated animals are cure)” and over 254, respectively. Also, the “activity against types of tumor (in words)” value in data set [7] is “active against all the types of tumor listed in Table I, with the exception of fibrosarcoma I.C.I.G”. The “activity compared with the other chloroethylnitrosoureas (in words)” value in [7] is “quantitatively greater than those observed with the other chloroethylnitrosoureas”.
